Our source for the Remarks and Half-life values is patent EP2725073B1, “Antifouling coating composition” (Jotun A/S, priority 2012, dated 2014).

The nature of the first series: Determination of carbodiimide half-life by IR spectroscopy (reaction with acetic acid in xylene). In kind it is physicochemical. The settings on record: observation during reaction with acetic acid in xylene at 23±2°C. The protocol: In particular, the carbodiimides of the present invention have slower reactivity than those described in US2005/0255081A1. The reactivity of carbodiimide compounds can be expressed as the half-life, i.e. in this case the time it takes for 50% of the carbodiimide compound to react with the carboxylic acid.
The carbodiimide compound preferably has relatively slow reactivity. Reactivity is measured by way of the half-life of the carbodiimide, which is defined as the time taken for 50% of the carbodiimide compound to react with a carboxylic acid.
Solutions of the carbodiimide compounds and acetic acid in xylene are prepared. A carbodiimide solution and the acetic acid solution are mixed and the reaction between the carbodiimide compound and acetic acid at 23±2°C is monitored by following the carbodiimide absorption at 2100-2200 cm^-1 in an zinc selenide cell. The reaction is followed until approximately 50% of the carbodiimide compound has reacted.
`C(=NC1CCCCC1)=NC1CCCCC1` [1,3-Dicyclohexylcarbodiimide]: the Remarks entry is recorded as “Precipitation of urea products”.
On the same count and under the same terms, with `CC(C)N=C=NC(C)C` [1,3-Diisopropylcarbodiimide] the entry was “Precipitation of urea products”.
Still for that read-out and setting: with `C[Si](C)(C)N=C=N[Si](C)(C)C` [1,3-bis(trimethylsilyl)carbodiimide] the entry was “No reaction”.

Staying with this series, now noted: time for 50% of the carbodiimide compound to react with acetic acid in xylene at 23±2°C; carbodiimide absorption at 2100-2200 cm^-1.
For `C(=NC1CCCCC1)=NC1CCCCC1` [1,3-Dicyclohexylcarbodiimide], the Half-life was determined as 0.25 h.
Still for that read-out and setting: with `Cc1ccccc1N=C=Nc1ccccc1C` [1,3-Di-o-methylphenylcarbodiimide] the figure was 3 h; with `CC(C)c1cccc(C(C)C)c1N=C=Nc1c(C(C)C)cccc1C(C)C` [Bis(2,6-diisopropylphenyl) carbodiimide], 30 h; with `CC(C)N=C=NC(C)C` [1,3-Diisopropylcarbodiimide], 0.75 h.
Turning to `Cc1ccc(N=C=Nc2ccc(C)cc2)cc1` [1,3-Di-p-tolylcarbodiimide], the Half-life is reported as 2 h.
